In US9980925B2, “Xanthohumol in antiarrythmic applications” (University of South Carolina, priority 2016, dated 2018):
Entries after “also recorded” stand apart in the source; their conditions may differ. Values belong to the molecule of their own block, whether it stands above or below them.

Key:
Assay type in all cases: cell-based
rat ventricular myocytes [1] = test: SR Ca2+ content and refilling after caffeine-induced Ca2+ release
Experimental: (§1) Whole-cell Ca^2+ transients occurring spontaneously or evoked electrically by field stimulation or voltage-clamp depolarizations or by rapid application of caffeine (2.5 mM for 0.5 or 1 second) were measured fluorometrically after incubating the cells in fluo-4 AM (2 μM) for 30 minutes. The dye was excited by 460 nm light from a LED-based illuminator (Prismatix, Modiin (lite, Israel), and Ca^2+-dependent fluorescent light (>500 nm) was detected with a photomultiplier tube that was placed behind a moveable, adjustable diaphragm, which served to limit the area of detection to the voltage-clamped cell. The cellular fluorescence signals (ΔF/F0) were normalized by dividing the changes in whole-cell fluorescence (ΔF) with the baseline fluorescence (F0).
(§2) The cells were incubated with fluo-4 AM for 30 minutes to allow fluorometric imaging of Ca^2+ sparks and measurements of whole-cell Ca^2+ transients. Rapid perfusion of caffeine was used to release, and SR Ca^2+ stores and assesses their size according to known methodology. Xanthohumol was tested in the range from 5 nM to 1 μM and was used routinely either with acute application of 50 nM drug or by incubation of cells in 10 nM xanthohumol-containing solutions for 30 minutes. All cells were first perfused with Tyrode's solution (137 mM NaCl, 10 mM HEPES, 10 mM glucose, 5.4 mM KCl, 2 mM CaCl, 1 mM MgCl) and thereafter were subjected to the following in the absence or presence of xanthohumol:
The aim of this set of experiments was to examine the effect of the xanthohumol on the SR Ca^2+ content and its recirculation. FIG. 14 compares the magnitude of Ca^2+ transients in electrically stimulated cells paced at 0.5 Hz to Ca^2+ transient that was produced when one stimulus was replaced by a rapid application of 2.5 mM caffeine for 1 second. […] It was concluded that xanthohumol suppresses slightly the Ca^2+ content of the SR, but this effect was fully reversed by isoproterenol.
To probe the effect of xanthohumol on recirculation of SR Ca^2+ and its refilling following depletion of its content by caffeine, the rate of recovery of electrically triggered Ca^2+ transients back to control levels was quantified as a measure of refilling of the SR store. […].

[2] = system: rat ventricular cardiomyocyte; test: ROS production from DCF fluorescence in ventricular myocytes incubated with H2DCFDA
Experimental: A Noran Odyssey XL rapid two-dimensional laser-scanning confocal microscope (Noran Instruments, Madison, Wis.; Zeiss Axiovert TV135) was used with a x63 water-immersion objective, λex=488 nm and λem>515 nm to measure kinetics and subcellular distribution of fluorescence signals according to known protocols. Ca^2+ was imaged after 20- to 30-minute incubation with fluo-4 AM (2 μM). ROS was measured by incubating cells with H2DCFDA (5 μM for 30 minutes), which is cleaved by esterases to form less permeant 2′,7′-dichlorodihydrofluorescein that is then oxidized by free radical compounds to fluorescent 2′,7′-dichlorofluorescein (DCF) as described previously. Fluorescence images of ROS were recorded at low fluorescence intensity and frame rate (about 1 Hz) and required considerable signal averaging (FIG. 1).
Measurements of ROS were also carried out using the oxygen-radical sensitive dye 2′,7′-dichlorofluorescein (DCF) (5 μM). The effect of the xanthohumol was compared with the antioxidant N-acetyl cysteine (10 mM).
ROS production was evaluated from the rate of increase in DCF fluorescence in ventricular myocytes incubated with H2DCFDA.

rat ventricular myocytes [3] = test: Ca2+ transients in voltage-clamped cells (Fluo-4 AM)
Experimental: (§3) Cells were voltage-clamped in the whole-cell perforated patch configuration at a holding potential of −50 or −60 mV and depolarized to +10 mV to activate L-type Ca^2+ current (ICa) and Ca^2+-induced Ca^2+ release using a Dagan amplifier and pClamp software (Clampex 10.2). Borosilicate patch pipettes were prepared using a horizontal pipette puller (Model P-87; Sutter Instruments, Novato, Calif.). […] Rapid applications of 2.5 mM caffeine and pharmacological interventions were used to elucidate the action mechanism of xanthohumol. Most experiments were performed at 35° C. Voltage-clamp experiments testing dose response were performed at both 25° C. and 35° C.
as §1
The effects of xanthohumol on Ca^2+ signaling parameters was compared using concentrations ranging between 1 nM and 1 μM. The experiments were carried out under perforated patch conditions both at room temperature and 35° C. Ventricular myocytes incubated in fluo-4 AM were activated by 100-ms depolarizing pulses from −50 to 10 m versus at room temperature. Ca^2+ current was suppressed by xanthohumol when the concentrations of the drug exceeded 100 nM (FIG. 16, panel A). […] At room temperatures, xanthohumol also slowed the kinetics of relaxation of Ca^2+ transients, as it suppressed its peak, at concentrations exceeding 50 nM (FIG. 16, panels B and C; P<0.001). […]

[4] = target: T1, L-type Ca^2+ current (ICa) (Rattus norvegicus, UniProt P22002); test: Voltage-clamp recording of L-type Ca2+ current (perforated patch)
T1 construct: enzymatically dispersed ventricular myocytes that were subjected to field stimulation or voltage-clamp depolarizations; endogenous in cells; host or cells: freshly isolated ventricular cardiomyocytes of male Sprague-Dawley rats
Experimental: as §3
The effects of xanthohumol on Ca^2+ signaling parameters was compared using concentrations ranging between 1 nM and 1 μM. The experiments were carried out under perforated patch conditions both at room temperature and 35° C. Ventricular myocytes incubated in fluo-4 AM were activated by 100-ms depolarizing pulses from −50 to 10 m versus at room temperature. Ca^2+ current was suppressed by xanthohumol when the concentrations of the drug exceeded 100 nM (FIG. 16, panel A). […] At room temperatures, xanthohumol also slowed the kinetics of relaxation of Ca^2+ transients, as it suppressed its peak, at concentrations exceeding 50 nM (FIG. 16, panels B and C; P<0.001). […] It was concluded that higher metabolic states of myocytes, induced by higher temperatures and adrenergic stimulation, reduce the inhibitory effects of xanthohumol on Ca^2+ transients.

rat ventricular myocytes [5] = test: Ca2+ spark imaging (Fluo-4 epifluorescence)
Experimental: Ca^2+ sparks (Fluo-4, λex=488 nm) were also measured with the LEICA DMI6000 microscope in the epifluorescence mode but now operating at 60-100 frames/s (FIG. 3, FIG. 4 (panels A-C); FIG. 5, FIG. 6, and FIG. 7); the average baseline fluorescence intensity (F0) was calculated from several frames without indication of spontaneous Ca^2+ signals in the form of sparks or waves. Images were filtered by 2 pixel×2 pixel averaging. The amplitudes of the Ca^2+-dependent cellular fluorescence signals were quantified as ΔF/F0, where ΔF is the change in fluorescence measured within selected regions of interest. The time constant of decay of Ca^2+ transients (Tau) was estimated by approximation with a single exponential.
as §2
(§4) Each experimental condition was typically sustained for 2-8 minutes to achieve equilibration. To avoid cell damage due to continuous light exposure, recordings were generally performed for intervals of only 5-10 seconds, but repeated every minute. Cells challenged with isoproterenol or low K^+ typically developed more abundant spontaneous Ca^2+ sparks and interdispersed irregular whole-cell Ca^2+ transients, especially in the absence of xanthohumol.

rat ventricular myocytes [6] = test: Global whole-cell Ca2+ transients in field-stimulated cells (Fluo-4 AM); settings: for increase in Ca2+-transient peaks following a 30-second train of high-frequency stimulation: 0.5 to 2 Hz
Experimental: as §1
Effects of xanthohumol on cardiac Ca^2+ signaling were evaluated in enzymatically dispersed ventricular myocytes that were subjected to field stimulation or voltage-clamp depolarizations in the whole-cell, perforated patch configuration to activate Ca^2+ current (ICa) and SR Ca^2+ release.
as §2, §4

[7] = 50-100 nM, 35° C., field-stimulated
[8] = xanthohumol 50-300 nM co-applied with isoproterenol
[9] = isoproterenol 100 nM, 0.75 Hz, 35° C.

T1 sequence (P22002 whole entry, other chains not shown): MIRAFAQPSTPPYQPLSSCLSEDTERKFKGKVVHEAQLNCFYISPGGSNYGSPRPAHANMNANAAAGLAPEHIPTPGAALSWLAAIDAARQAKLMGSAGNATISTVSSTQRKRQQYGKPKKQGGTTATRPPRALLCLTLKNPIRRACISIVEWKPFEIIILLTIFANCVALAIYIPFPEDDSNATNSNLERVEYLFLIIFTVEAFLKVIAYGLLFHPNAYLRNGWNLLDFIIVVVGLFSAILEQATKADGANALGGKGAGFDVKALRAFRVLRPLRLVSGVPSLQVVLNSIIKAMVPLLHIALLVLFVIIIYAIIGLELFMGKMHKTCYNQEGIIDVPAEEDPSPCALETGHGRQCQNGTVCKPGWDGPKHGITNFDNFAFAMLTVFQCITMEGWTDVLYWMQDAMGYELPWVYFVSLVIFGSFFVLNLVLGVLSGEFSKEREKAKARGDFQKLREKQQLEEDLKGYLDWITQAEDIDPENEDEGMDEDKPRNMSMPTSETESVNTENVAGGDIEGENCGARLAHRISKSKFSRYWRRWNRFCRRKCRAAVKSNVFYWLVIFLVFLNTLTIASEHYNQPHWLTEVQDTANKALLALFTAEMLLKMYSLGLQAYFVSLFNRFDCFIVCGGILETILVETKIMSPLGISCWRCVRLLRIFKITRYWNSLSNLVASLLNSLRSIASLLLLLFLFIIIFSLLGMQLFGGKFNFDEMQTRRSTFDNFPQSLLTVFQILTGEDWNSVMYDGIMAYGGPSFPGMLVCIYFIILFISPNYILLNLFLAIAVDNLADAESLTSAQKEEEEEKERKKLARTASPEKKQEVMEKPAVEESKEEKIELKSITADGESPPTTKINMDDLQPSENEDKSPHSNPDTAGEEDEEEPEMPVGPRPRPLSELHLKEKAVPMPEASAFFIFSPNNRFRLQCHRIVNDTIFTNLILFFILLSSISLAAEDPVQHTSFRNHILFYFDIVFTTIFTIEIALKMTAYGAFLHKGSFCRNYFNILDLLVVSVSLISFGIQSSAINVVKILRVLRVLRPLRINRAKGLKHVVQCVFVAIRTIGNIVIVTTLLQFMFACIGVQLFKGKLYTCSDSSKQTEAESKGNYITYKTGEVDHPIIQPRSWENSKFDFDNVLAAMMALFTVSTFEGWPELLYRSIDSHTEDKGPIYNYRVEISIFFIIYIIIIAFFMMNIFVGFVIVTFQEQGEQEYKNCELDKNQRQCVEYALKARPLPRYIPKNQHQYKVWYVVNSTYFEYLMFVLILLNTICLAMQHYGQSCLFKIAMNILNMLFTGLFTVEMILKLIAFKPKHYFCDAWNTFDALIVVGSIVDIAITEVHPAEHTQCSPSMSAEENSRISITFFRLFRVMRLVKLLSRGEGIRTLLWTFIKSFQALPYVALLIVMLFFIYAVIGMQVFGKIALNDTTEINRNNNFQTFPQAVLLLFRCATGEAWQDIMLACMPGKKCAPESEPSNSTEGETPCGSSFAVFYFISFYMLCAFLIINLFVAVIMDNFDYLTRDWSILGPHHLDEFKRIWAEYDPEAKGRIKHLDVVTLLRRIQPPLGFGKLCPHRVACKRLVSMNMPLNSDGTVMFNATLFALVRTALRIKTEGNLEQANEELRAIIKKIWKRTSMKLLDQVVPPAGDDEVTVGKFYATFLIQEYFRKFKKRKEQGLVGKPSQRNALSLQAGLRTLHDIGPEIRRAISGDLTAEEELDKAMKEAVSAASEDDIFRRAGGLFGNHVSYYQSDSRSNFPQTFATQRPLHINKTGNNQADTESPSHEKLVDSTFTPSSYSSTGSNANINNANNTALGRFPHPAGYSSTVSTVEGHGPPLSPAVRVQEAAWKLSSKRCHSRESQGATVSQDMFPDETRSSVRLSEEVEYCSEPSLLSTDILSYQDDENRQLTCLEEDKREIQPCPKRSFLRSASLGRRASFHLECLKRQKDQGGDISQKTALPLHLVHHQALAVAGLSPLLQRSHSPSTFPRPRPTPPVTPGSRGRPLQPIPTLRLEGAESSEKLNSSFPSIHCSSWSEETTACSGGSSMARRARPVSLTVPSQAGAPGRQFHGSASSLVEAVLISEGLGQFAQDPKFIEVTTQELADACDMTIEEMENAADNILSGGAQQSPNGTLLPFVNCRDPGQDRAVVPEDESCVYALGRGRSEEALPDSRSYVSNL
T1 sequence (P54290 25-944 partner limits assumed, other chains not shown): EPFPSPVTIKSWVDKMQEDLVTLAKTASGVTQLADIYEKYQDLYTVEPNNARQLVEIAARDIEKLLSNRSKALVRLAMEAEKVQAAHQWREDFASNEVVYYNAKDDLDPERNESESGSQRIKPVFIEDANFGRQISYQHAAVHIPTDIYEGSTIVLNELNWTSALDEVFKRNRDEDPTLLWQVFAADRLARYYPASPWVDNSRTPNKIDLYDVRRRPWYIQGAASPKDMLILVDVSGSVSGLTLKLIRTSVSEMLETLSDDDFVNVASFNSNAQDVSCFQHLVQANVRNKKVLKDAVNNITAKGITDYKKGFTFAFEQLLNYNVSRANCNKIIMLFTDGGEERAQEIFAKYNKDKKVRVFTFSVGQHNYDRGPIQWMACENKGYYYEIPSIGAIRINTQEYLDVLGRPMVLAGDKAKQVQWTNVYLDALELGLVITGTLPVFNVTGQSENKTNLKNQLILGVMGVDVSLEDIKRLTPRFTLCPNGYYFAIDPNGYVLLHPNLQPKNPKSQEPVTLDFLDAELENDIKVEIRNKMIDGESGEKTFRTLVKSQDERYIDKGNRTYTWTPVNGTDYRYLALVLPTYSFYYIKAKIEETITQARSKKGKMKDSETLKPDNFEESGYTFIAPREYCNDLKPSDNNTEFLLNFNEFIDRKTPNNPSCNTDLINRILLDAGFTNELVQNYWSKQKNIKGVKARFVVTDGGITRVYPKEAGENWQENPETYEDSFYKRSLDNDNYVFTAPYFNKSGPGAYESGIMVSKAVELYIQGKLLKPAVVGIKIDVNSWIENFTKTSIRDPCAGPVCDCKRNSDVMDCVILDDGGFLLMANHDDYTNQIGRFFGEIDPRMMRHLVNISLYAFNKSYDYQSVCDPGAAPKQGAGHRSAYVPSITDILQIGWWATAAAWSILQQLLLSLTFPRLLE
T1 sequence (P54290 945-1091 partner limits assumed, other chains not shown): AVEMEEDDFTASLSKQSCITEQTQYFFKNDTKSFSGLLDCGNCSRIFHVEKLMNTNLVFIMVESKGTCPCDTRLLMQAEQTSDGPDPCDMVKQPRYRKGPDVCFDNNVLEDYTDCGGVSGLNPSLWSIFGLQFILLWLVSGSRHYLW

effect on ICa ([4]; 10 nM, room temperature): little or no effect | Ca2+ current ([4]; 100-300 nM, 35° C.): significantly increased | concentration above which Ca2+ current was suppressed ([4]; room temperature): exceeded 100 nM
SMILES: COc1cc(O)c(CC=C(C)C)c(O)c1C(=O)/C=C/c1ccc(O)cc1 [xanthohumol]
modulatory effect on the uptake kinetics (Tau) following Ca2+ release by caffeine (rat ventricular myocytes [1]; in presence of xanthohumol (50 nM)): completely suppressed | fractional Ca2+ release (ΔFStim/ΔFCaff) (rat ventricular myocytes [1]; xanthohumol 50 nM, 0.5 Hz, 35° C.): not influenced; also recorded: not significantly reduced | rate of refilling of the SR (rat ventricular myocytes [1]; xanthohumol 50 nM, after caffeine depletion): significantly reduced | ΔF/F signal of caffeine-induced Ca2+ release (total Ca2+ content of the SR) (rat ventricular myocytes [1]; xanthohumol 50 nM, caffeine 2.5 mM 1 second, 0.5 Hz, 35° C.): significantly reduced | reduction of peak of the triggered Ca2+ transient (rat ventricular myocytes [1]; xanthohumol 50 nM, paced at 0.5 Hz): 22.66% | diastolic Ca2+ levels (rat ventricular myocytes [1]; xanthohumol 50 nM, statistically insignificant): slight increase | effect on DCF signal after washout ([2]; after xanthohumol 50 nM): persisted even after washout | low K+ solution-induced increase of the DCF signal ([2]; xanthohumol 50 nM, low K+ 5.4→1.5 mM): effectively suppressed | slope of ROS-dependent DCF fluorescence signal (baseline ROS production) ([2]; xanthohumol 50 nM, uncompensated and background-compensated signal): reduced the slope | Ca2+ transients (rat ventricular myocytes [3]; 10 nM, room temperature): significantly suppressed | concentrations above which significant effects on ΔF/F or rate of decay occurred (rat ventricular myocytes [3]; 35° C.): exceeding 300 nM | concentrations above which relaxation of Ca2+ transients was slowed and peak suppressed (rat ventricular myocytes [3]; room temperature, P<0.001): exceeding 50 nM | frequency of Ca2+ sparks evoked by withdrawal of extracellular K+ (rat ventricular myocytes [5]; 50 nM): markedly decreased | time to reduction of spark frequency after application (rat ventricular myocytes [5]; acute 10 nM): ≤ 2 min | spontaneous Ca2+ spark frequency (rat ventricular myocytes [5]; acute 10 nM, control cells with high baseline spark frequency, 5.4 mM K+): consistently reduced | spontaneously developed Ca2+ oscillations or sparks (rat ventricular myocytes [5]; incubated 30 minutes in 10 nM, 5.4 mM K+): scarce | frequency of sparks/Ca2+ oscillations on reduction of K+ versus non-incubated cells (rat ventricular myocytes [5]; incubated 30 minutes in 10 nM, K+-free solutions, p<0.005): significantly lower | time to suppression of aberrant cellular Ca2+ transients (rat ventricular myocytes [6]; 30 nM, electrically stimulated 1 Hz, 25° C.): < 10 s | peak ΔF/F0, F0, or decay time constant (Tau) of electrically triggered Ca2+ transients (rat ventricular myocytes [6]; 100 nM, 35° C.): without modifying | spontaneously triggered beats induced by rapid electrical stimulation (rat ventricular myocytes [6]; 100 nM, 35° C.): suppressed significantly | frequency of spontaneously triggered Ca2+ oscillations (rat ventricular myocytes [6]; 1.5 mM K+, xanthohumol 50 nM): markedly reduced | concentrations over which Tau was significantly reduced (rat ventricular myocytes [6]; 0.5 Hz, 35° C. (FIG. 12 C)): over 300 nM | toxic concentrations (rat ventricular myocytes [6]; 35° C., electrically stimulated cells): about 1 mM | increase in Ca2+-transient peaks following a 30-second train of high-frequency stimulation (rat ventricular myocytes [6]; 50-100 nM xanthohumol, n=4): 12.14%±2.662 | normalized ΔF or F0 (rat ventricular myocytes [6]; 50-100 nM, 35° C., 0.5 Hz, statistically insignificant): slight increase | aberrant secondary Ca2+ release events (rat ventricular myocytes [6]; [7]): blocks | amplitude of electrically stimulated cellular Ca2+ transients (rat ventricular myocytes [6]; [7]): without decreasing | time for effects of xanthohumol to start to develop (rat ventricular myocytes [6]; continuous recordings (FIG. 9)): less than 10 seconds | Tau of relaxation (rat ventricular myocytes [6]; range of 10-300 nM, 35° C.): without much change | isoproterenol-triggered spontaneous events (rat ventricular myocytes [6]; [8]): strong suppression | various parameters of Ca2+ transients (ΔF/F0, F0, Tau) (rat ventricular myocytes [6]; [8]): without having a significant effect | increase in Ca2+-transient peaks following a 30-second train of high-frequency stimulation (rat ventricular myocytes [6]; xanthohumol and isoproterenol (100 nM)): 5.002%±0.6667

SMILES: CC(C)NCC(O)c1ccc(O)c(O)c1 (stereo not drawn) [isoproterenol, reference compound]
fraction of the caffeine-releasable Ca2+ pool released by electrical stimulation (rat ventricular myocytes [1]; isoproterenol 100 nM, 0.5 Hz, 35° C.): enhanced | increase of peak of the triggered Ca2+ transient (rat ventricular myocytes [1]; isoproterenol 100 nM, paced at 0.5 Hz): 74.12% | enhancement of rate of relaxation of Ca2+ transients (rat ventricular myocytes [6]; [9]): about 30% | increase in frequency of spontaneous events (rat ventricular myocytes [6]; [9]): 3- to 4 fold | increase in amplitude of the Ca2+ transients (rat ventricular myocytes [6]; isoproterenol 100 nM, electrical stimulation 0.75 Hz, 35° C., P=0.0464): 50%

SMILES: CC(=O)N[C@@H](CS)C(=O)O [N-acetyl cysteine, reference compound]
low K+-induced increase of the DCF signal ([2]; N-acetyl cysteine 10 mM, low K+): suppressed | effect on DCF signal after washout ([2]; after N-acetyl cysteine 10 mM): washout rapidly reversed the DCF signal
